Reference: patent US20190119282A1, “IMIDAZOPYRIDAZINES USEFUL AS INHIBITORS OF THE PAR-2 SIGNALING PATHWAY” (Vertex Pharmaceuticals Incorporated, priority 2013, published 2019)
Marks after values point to notes of the source that are not given here.

Tests used:
[1] = target: T1, PAR2 (HT-29 cells, SLIGKV activation) (Homo sapiens, UniProt P55085); assay: Ca FLIPR TETRA assay, ANTAGONIST mode, stimulation with 8 μM SLIGKV; assay type: cell-based; settings: HT-29 cells, antagonist mode, stimulation with 8 μM SLIGKV
T1 construct: host or cells: HT-29 cells
T1 sequence (P55085 26-397): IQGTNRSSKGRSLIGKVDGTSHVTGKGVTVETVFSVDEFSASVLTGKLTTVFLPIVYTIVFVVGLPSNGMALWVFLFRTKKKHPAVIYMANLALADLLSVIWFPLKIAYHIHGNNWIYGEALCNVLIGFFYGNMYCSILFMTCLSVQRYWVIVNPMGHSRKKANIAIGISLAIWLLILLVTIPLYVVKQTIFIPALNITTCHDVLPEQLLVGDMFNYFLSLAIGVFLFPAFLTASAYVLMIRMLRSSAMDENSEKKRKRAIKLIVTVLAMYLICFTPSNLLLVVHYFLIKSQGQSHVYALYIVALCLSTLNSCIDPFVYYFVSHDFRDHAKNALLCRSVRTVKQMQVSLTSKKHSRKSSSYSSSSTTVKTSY
In short: (§1)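 FLIPR Tetra Ca2+ read-out in HT-29 cells, calcium 5 dye. Compound preincubation 30 min r.t., with an initial read for agonist activity. Final activator levels: SLIGKV 8 μM, thrombin 1 U/mL, trypsin 3.1 U/mL, UTP 0.6 μM.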

[2] = test system: UTP-stimulated Ca2+ response in HT-29 cells; assay: Ca FLIPR TETRA assay, ANTAGONIST mode, stimulation with 0.6 μM UTP; assay type: cell-based, human; settings: Homo sapiens; HT-29 cells, antagonist mode, stimulation with 0.6 μM UTP
In short: as §1

[3] = In vivo rat pharmacokinetics (intravenous and oral); settings: plasma
In short: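 Rats dosed by tail-vein bolus at 0.5–1 mg/kg in NMP-based solutions, or by oral gavage at 1–600 mg/kg as solution, suspension or spray-dried dispersion. Jugular blood in K3EDTA gave plasma or citrate-diluted whole blood; LC-MS/MS quantification, non-compartmental PK analysis.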

[4] = test system: tryptase-induced mechanical hypersensitivity; assay: Rat tryptase-induced mechanical hypersensitivity model; assay type: in vivo, Sprague Dawley rats; settings: given 30 minutes post tryptase challenge
Experimental: (§2) Male Sprague Dawley rats and BALB/c mice were housed in groups in a temperature controlled room and were acclimatized in the animal facility for at least three days prior to use. Experiments were performed during the light phase of the cycle. Animals have food and water ad libitum.
Example 64: Rat Tryptase-Induced Mechanical Hypersensitivity Model
Peripheral sensitization was induced by intra-dermal administration of 500 ng of tryptase in a volume of 10 ul PBS under isoflurane anesthesia. Rats were then placed on a wire mesh grid in separate compartments and allowed to acclimatize before testing. Mechanical hypersensitivity was assessed 30 min after tryptase injection using calibrated von Frey filaments applied perpendicular to the plantar surface of the affected paw using the up-and-down method. Test compounds or vehicle (0.5% MC/0.1% SDS) were systemically administered at doses indicated in a volume of 5 mL/kg 3-18 h before the tryptase challenge (Table 11) or 30 minutes post tryptase challenge (Table 12).
(§3) Data are expressed as the mean % effect. Statistical significance was assessed using t-test for comparison between naive and inflamed rats, and one-way ANOVA followed by post-hoc comparison test for overall drug effectiveness. A difference between groups is considered significant with a p value of <0.05. *, p<0.05; **, p<0.01; ***, p<0.001 vs. vehicle.

TNBS-induced colitis = assay: Mouse TNBS-induced colitis model; assay type: in vivo, BALB/c mice; settings: mice
Experimental: as §2
Example 65: Mouse TNBS-Induced Colitis Model
Colitis was induced by intra-colonic administration of 1.5 mg of TNBS in 75 μl of 40% v/volume ethanol solution under isoflurane anesthesia at a depth of 4 cm from the anal verge. Mice were kept with their heads down for 30 additional seconds post administration to ensure distribution of TNBS. Disease activity scores were assessed for a period of 5 days starting prior to TNBS injection (baseline reading). […] Test compounds or vehicle (0.5% MC/0.1% SDS) were systemically administered at the indicated doses in a volume of 10 mL/kg each day for 5 days and starting 1 day before TNBS.
as §3

Cc1nc(C(=O)N2CCN(C(=O)c3cn4nc(-c5ccc(F)cc5)cc(C(C)(C)C)c4n3)C(C)(C)C2)n[nH]1 [Compound I-343, (8-(tert-butyl)-6-(4-fluorophenyl)imidazo[1,2-b]pyridazin-2-yl)(2,2-dimethyl-4-(5-methyl-1H-1,2,4-triazole-3-carbonyl)piperazin-1-yl)methanone]
IC50 [1]: 0.5 nM | IC50 [2]: 1030 nM | clearance ([3]; intravenous 0.5 to 1 mg/kg, read-out: Clp): 3.39 mL/min/kg | Vd ([3]; intravenous, read-out: Vss): 1.65 L/kg | bioavailability ([3]; oral by gavage): 62% | half-life ([3]; read-out: T ½ (converted)): 7.03 h | % inhibition of an established tryptase-induced nociception ([4]; dose 3 mg/kg): 12% | % inhibition of an established tryptase-induced nociception ([4]; dose 10 mg/kg): 23% | % inhibition of an established tryptase-induced nociception ([4]; dose 30 mg/kg): 49* % | % improvement in Disease activity scores (TNBS-induced colitis; dose 15 mg/kg each day for 5 days starting 1 day before TNBS): 24% | % improvement in Disease activity scores (TNBS-induced colitis; dose 50 mg/kg each day for 5 days starting 1 day before TNBS): 33* % | % improvement in Disease activity scores (TNBS-induced colitis; dose 150 mg/kg each day for 5 days starting 1 day before TNBS): 62*** %
